Source: patent publication US9034886B2, “4-aminoquinazoline derivatives and uses thereof” (Shanghai Institute of Pharmaceutical Industry, priority 2011, dated 2015)
Where two headings read alike, the source gives them in different places.

How the values were obtained:
[1] = tested on: K562 human chronic myelogenous leukemia cells; assay: In vitro anti-proliferative effect, CCK-8 method, K562; type: cell-based; conditions: Homo sapiens, K562
Procedure, shortened: (§1)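 Percent growth inhibition, measured with CCK-8, in Hut78 and K562 leukemia cells at two compound concentrations, 10 μM and 100 μM.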

[2] = Maximum tolerance dose through intragastrical administration; type: in vivo; conditions: mice, administrated intragastrically
Procedure, shortened: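 ICR mice (8˜20 g, both sexes, 10 per group) fasted 6 h, then dosed once intragastrically at 0.3 ml/10 g. Physical signs and deaths recorded at 1, 2 and 4 h, then daily with body weight over 14 days; dead animals necropsied with pathology on suspicious organs.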

[3] = tested on: PC-3 human prostate cancer; assay: In vitro anti-proliferative effect, CCK-8 method, PC-3; type: cell-based; conditions: Homo sapiens
Procedure, shortened: (§2)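 Percent inhibition was determined via CCK-8 after treatment at two fixed doses (100 μM, 10 μM).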

[4] = tested on: Hut78 T lymphocytic leukemia cells; assay: In vitro anti-proliferative effect, CCK-8 method, Hut78; type: cell-based; conditions: Homo sapiens, HuT78
Procedure, shortened: as §1

[5] = tested on: PANC-1 human pancreatic cancer cells; assay: In vitro anti-proliferative effect, CCK-8 method, PANC-1; type: cell-based; conditions: Homo sapiens, PANC-1
Procedure, shortened: as §2

HDACs = assay: In vitro inhibition of HDACs (HDAC Inhibitor Drug Screening Kit, Biovision K340-100); type: biochemical
Description: The in vitro inhibitory activities of the compounds towards HDACs were tested according to the instructions in the HDAC Inhibitor Drug Screening Kit (Biovision/Catalog #K340-100).
(1) The compounds to be tested were each individually prepared as 2 mM, 200 μM and 40 μM solutions and their inhibitory activities at these concentrations were tested.

[6] = tested on: Hep3B2.1-7 human liver cancer cells; assay: In vitro anti-proliferative effect, CCK-8 method, Hep3B; type: cell-based; conditions: Homo sapiens
Procedure, shortened: as §2

human PC-3 tumors = assay: Human PC-3 tumors transplanted in nude mice; type: in vivo; conditions: 50 mg/kg
[7] = Preliminary pharmacokinetics; conditions: in vivo, rat
[8] = tested on: Colo320 human colorectal cancer cell lines; assay: In vitro anti-proliferative effect, CCK-8 method, Colo320; type: cell-based; conditions: Homo sapiens, COLO 320
Procedure, shortened: as §2

[9] = tested on: A549 human lung cancer cells; assay: In vitro anti-proliferative effect, CCK-8 method, A549; type: cell-based; conditions: Homo sapiens, A549
Procedure, shortened: as §2

[10] = tested on: Jurkat E6-1 human T-cell lymphoma; assay: In vitro anti-proliferative effect, CCK-8 method, Jurkat E6-1; type: cell-based; conditions: Homo sapiens, Jurkat E6.1
Procedure, shortened: as §2

[11] = tested on: MDA-MB-435s human breast cancer cells; assay: In vitro anti-proliferative effect, CCK-8 method, MDA-MB-435s; type: cell-based; conditions: Homo sapiens, MDA-MB-435S
Procedure, shortened: as §2

hERG potassium channel = hERG potassium channel (Homo sapiens (Human), UniProt Q12809); assay: Effects on hERG potassium channel; type: cell-based
HDAC1 = HDAC1 (Homo sapiens (Human), UniProt Q13547); assay: In vitro inhibition of subtype HDAC1 (HDAC1 Inhibitor Drug Screening Kit, Biovision); type: biochemical; conditions: read-out: % Inhibition towards HDAC1
Description: The in vitro inhibitory activities of the compounds towards the subtype HDAC1 were tested according to the instructions in the HDAC1 Inhibitor Drug Screening Kit (Biovision).
(1) The compounds to be tested were each individually prepared as 10 μM and 1 μM solutions and their inhibitory activities at these concentrations were tested.
Each dilution sample was placed in two wells and the enzyme inhibition IC50 of the compound was tested.

Chain of hERG potassium channel (Q12809 whole entry): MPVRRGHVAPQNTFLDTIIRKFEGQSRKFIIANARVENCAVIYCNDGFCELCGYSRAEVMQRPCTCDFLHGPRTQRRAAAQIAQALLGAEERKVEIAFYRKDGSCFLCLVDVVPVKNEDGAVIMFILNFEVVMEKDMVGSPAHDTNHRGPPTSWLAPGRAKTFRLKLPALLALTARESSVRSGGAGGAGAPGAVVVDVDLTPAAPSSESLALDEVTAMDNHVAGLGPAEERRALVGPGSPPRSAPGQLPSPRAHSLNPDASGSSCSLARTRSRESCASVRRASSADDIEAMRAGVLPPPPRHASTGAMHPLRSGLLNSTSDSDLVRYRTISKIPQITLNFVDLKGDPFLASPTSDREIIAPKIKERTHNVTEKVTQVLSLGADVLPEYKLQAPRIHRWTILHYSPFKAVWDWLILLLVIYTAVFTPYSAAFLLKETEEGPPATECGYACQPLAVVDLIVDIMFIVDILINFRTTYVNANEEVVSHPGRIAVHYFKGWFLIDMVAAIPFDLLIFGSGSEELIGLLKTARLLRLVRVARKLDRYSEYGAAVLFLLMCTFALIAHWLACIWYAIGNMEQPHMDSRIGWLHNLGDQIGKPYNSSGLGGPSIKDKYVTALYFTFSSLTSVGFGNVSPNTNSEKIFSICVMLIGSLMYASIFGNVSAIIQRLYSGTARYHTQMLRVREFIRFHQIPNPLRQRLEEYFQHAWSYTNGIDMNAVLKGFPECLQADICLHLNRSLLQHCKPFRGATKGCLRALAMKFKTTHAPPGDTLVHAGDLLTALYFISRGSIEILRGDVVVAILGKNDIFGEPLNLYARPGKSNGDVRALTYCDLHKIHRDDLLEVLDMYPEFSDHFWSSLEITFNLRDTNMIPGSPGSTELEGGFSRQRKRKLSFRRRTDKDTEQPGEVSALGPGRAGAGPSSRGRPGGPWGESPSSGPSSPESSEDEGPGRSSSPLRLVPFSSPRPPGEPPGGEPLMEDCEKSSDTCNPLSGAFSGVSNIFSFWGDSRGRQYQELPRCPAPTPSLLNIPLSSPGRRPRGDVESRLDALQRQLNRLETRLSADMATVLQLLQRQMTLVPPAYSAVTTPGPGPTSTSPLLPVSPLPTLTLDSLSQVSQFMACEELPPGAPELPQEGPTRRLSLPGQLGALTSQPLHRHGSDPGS
Chain of HDAC1 (Q13547 whole entry): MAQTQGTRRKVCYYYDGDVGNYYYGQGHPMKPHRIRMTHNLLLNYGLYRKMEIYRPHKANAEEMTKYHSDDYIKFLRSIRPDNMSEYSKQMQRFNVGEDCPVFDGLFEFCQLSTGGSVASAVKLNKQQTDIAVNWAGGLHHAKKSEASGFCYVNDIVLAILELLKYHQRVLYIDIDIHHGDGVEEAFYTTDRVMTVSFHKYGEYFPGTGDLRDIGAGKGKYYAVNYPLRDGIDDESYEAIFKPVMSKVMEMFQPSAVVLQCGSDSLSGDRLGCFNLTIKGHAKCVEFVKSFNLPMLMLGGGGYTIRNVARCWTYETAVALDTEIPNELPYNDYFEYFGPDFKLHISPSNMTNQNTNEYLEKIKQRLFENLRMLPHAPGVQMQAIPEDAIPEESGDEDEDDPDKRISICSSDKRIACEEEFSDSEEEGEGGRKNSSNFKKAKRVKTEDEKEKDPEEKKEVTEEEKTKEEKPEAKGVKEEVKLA

Question: For `COc1cccc2c(Nc3ccc(C(=O)Nc4ccccc4N)cc3)ncnc12` [Compound V-9, N-(2-aminophenyl)-4-(8-methoxy-quinazoline-4-amino)benzamide], which IC50 [1] is on record?
Answer: The IC50 was 19.9 µM.

Question: What about the inhibition at 10 µM ([1]; 10 μM) of the same molecule?
Answer: Its inhibition at 10 µM is -2.8%.

Question: And the inhibition at 100 µM ([1]; 100 μM)?
Answer: The inhibition at 100 µM was 30.3%.

Question: And the maximum tolerance dose [2]?
Answer: The maximum tolerance dose was “over 5000 mg/kg”.

Question: And the IC50 [3]?
Answer: The IC50 was 12.2 µM.

Question: What about the inhibition at 10 µM ([3]; PC-3 cell strain, compound at 10 μM, CCK-8 method) of the same molecule?
Answer: Its inhibition at 10 µM is 5.1%.

Question: What about the inhibition at 100 µM ([3]; PC-3 cell strain, compound at 100 μM, CCK-8 method) of the same molecule?
Answer: Its inhibition at 100 µM is 19.3%.

Question: And the IC50 [4]?
Answer: Its IC50 is 0.231 µM.

Question: And the inhibition at 10 µM ([4]; 10 μM, read-out: Hut-78 (inhibition %))?
Answer: Its inhibition at 10 µM is 10.8%.

Question: And the inhibition at 100 µM ([4]; 100 μM, read-out: Hut-78 (inhibition %))?
Answer: The inhibition at 100 µM was 94%.

Question: And the inhibition at 10 µM ([5]; 10 μM)?
Answer: The inhibition at 10 µM was 22.3%.

Question: What about the inhibition at 100 µM ([5]; 100 μM) of the same molecule?
Answer: The inhibition at 100 µM was 26.4%.

Question: What about the IC50 (HDACs) of the same molecule?
Answer: The IC50 was 4.91 µM.

Question: And the “Inhibition percentage (%) towards HDACs” value (HDACs; 40 μM)?
Answer: Its value is 1.9%.

Question: And the “Inhibition percentage (%) towards HDACs” value (HDACs; 200 μM)?
Answer: The value was 7.8%.

Question: And the “Inhibition percentage (%) towards HDACs” value (HDACs; 2 mM)?
Answer: The value was 50.0%.

Question: And the IC50 ([6]; Hep3B)?
Answer: The IC50 was 52.2 µM.

Question: And the inhibition at 10 µM ([6]; Hep3B cell strain, compound at 10 μM, CCK-8 method)?
Answer: The inhibition at 10 µM was 27%.

Question: And the inhibition at 100 µM ([6]; Hep3B cell strain, compound at 100 μM, CCK-8 method)?
Answer: The inhibition at 100 µM was 26.2%.

Question: And the “tumor inhibition %, PC-3 (human prostate cancer)” value (human PC-3 tumors)?
Answer: The value was 36.97%.

Question: What about the “deaths, PC-3 model” value (human PC-3 tumors; 8 mice in each group) of the same molecule?
Answer: The value was “no death”.

Question: What about the half-life ([7]; iv, 2 mg/kg, i.v., read-out: Intravenous half-life (converted)) of the same molecule?
Answer: Its half-life is 1.27 h.

Question: What about the bioavailability ([7]; oral) of the same molecule?
Answer: The bioavailability was 19%.

Question: What about the half-life ([7]; oral, read-out: Oral half-life (converted)) of the same molecule?
Answer: The half-life was 4.53 h.

Question: What about the IC50 [8] of the same molecule?
Answer: The IC50 was 88.4 µM.

Question: And the inhibition at 10 µM ([8]; Colo320 cell strain, compound at 10 μM, CCK-8 method)?
Answer: Its inhibition at 10 µM is 4.4%.

Question: And the inhibition at 100 µM ([8]; Colo320 cell strain, compound at 100 μM, CCK-8 method)?
Answer: The inhibition at 100 µM was 4.2%.

Question: And the IC50 [9]?
Answer: The IC50 was 29.9 µM.

Question: And the inhibition at 10 µM ([9]; 10 μM)?
Answer: The inhibition at 10 µM was 24.6%.

Question: And the inhibition at 100 µM ([9]; 100 μM)?
Answer: Its inhibition at 100 µM is 42.3%.

Question: What about the IC50 [10] of the same molecule?
Answer: Its IC50 is 12.4 µM.

Question: What about the inhibition at 10 µM ([10]; 10 μM) of the same molecule?
Answer: Its inhibition at 10 µM is 0.9%.

Question: And the inhibition at 100 µM ([10]; 100 μM)?
Answer: The inhibition at 100 µM was 22.8%.

Question: What about the inhibition at 10 µM ([11]; 10 μM) of the same molecule?
Answer: Its inhibition at 10 µM is -11.9%.

Question: What about the inhibition at 100 µM ([11]; 100 μM) of the same molecule?
Answer: The inhibition at 100 µM was 11.8%.

Question: What about the inhibition at 10 µM (hERG potassium channel; human, hERG potassium current, 10 μM, read-out: Maximum inhibition percentage at 10 μM (%)) of the same molecule?
Answer: Its inhibition at 10 µM is 21.5 ± 0.4%.

Question: And the IC50 (hERG potassium channel; read-out: Half inhibition concentration for the effect on hERG potassium current, IC50)?
Answer: Its IC50 is over 10 µM.

Question: What about the inhibition at 1 µM (HDAC1; 1 μM) of the same molecule?
Answer: Its inhibition at 1 µM is 33.8%.

Question: What about the inhibition at 10 µM (HDAC1; 10 μM) of the same molecule?
Answer: The inhibition at 10 µM was 58.3%.
